The target in one assay is hMC4R (Homo sapiens, UniProt P32245). The note with it: saturation binding, Figure 2.
For another assay, the system named is melanocortin receptors. The note with it: ref [28]; cited from earlier work.

hMC4R, sequence (P32245 whole entry): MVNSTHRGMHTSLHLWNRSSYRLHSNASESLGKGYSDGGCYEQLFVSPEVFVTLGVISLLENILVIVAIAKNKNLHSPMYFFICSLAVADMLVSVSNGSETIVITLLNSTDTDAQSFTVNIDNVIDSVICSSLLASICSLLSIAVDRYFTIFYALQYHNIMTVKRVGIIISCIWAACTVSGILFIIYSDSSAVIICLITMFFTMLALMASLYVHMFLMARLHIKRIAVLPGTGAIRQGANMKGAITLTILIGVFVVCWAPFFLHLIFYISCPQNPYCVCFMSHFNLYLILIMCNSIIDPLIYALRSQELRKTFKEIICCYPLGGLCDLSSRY

Turning to `N=C(N)NCCC[C@H](NC(=O)[C@@H](Cc1ccccc1)NC(=O)[C@H](Cc1c[nH]cn1)NC(=O)COCC(=O)NCCCOCCOCCOCCCNC(=O)CN(CCN(CCN(CC(=O)O)CC(=O)O)CC(=O)O)CC(=O)O)C(=O)N[C@@H](Cc1c[nH]c2ccccc12)C(N)=O` [Probe 2, Eu-DTPA-PEGO-MSH(4)], at hMC4R, the “non-specific binding relative to probes 3 and 4” value is on record as 20%. For “Ac-Ser-Tyr-Ser-Nle-Glu-His-DPhe-Arg-Trp-Gly-Lys-Pro-Val-NH2 [NDP-α-MSH]”, the off-rate entry with melanocortin receptors is given as “approximately eight”.

The values above are taken from publication PMC3773999 (Bioorganic & medicinal chemistry, 2013).
